Measurements published in patent US10238118B2 (priority 2011, dated 2019).

Test system: Xylella fastidiosa (Xf)
Assay type: cell-based
Details: single metabolite from Cochliobolus sp. extract, identified by NMR and MS

For C/C=C/c1cc2c(c(=O)o1)C(=O)[C@@H](O)[C@H](C)O2 [radicinin], the “anti-Xf inhibitory activity of the isolated metabolite” value was “inhibitory activity”.
